Data published in the supplement of paper PMC8149375.

Columns and labels:
Conditions in all cases: treatment: drug alone; 5 days
769-P [1] = assay: GI50, drug alone; higher = less potent
Protocol: (§1)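 Primary HTS: 8 RCC cell lines treated with 8 doses (up to 10 uM) of each library drug alone for 5 days; viability read by CellTiter-Glo and normalised to DMSO. GI50 was fitted with XLfit (4-parameter), AUC is the area under the dose-response curve, and minimum viability is the lowest fraction of DMSO viability across doses.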

786-O [2] = assay: GI50, drug alone; higher = less potent
Protocol: as §1

A498 [3] = assay: GI50, drug alone; higher = less potent
Protocol: as §1

ACHN [4] = assay: GI50, drug alone; higher = less potent
Protocol: as §1

CAKI-1 [5] = assay: GI50, drug alone; higher = less potent
Protocol: as §1

SN12C [6] = assay: GI50, drug alone; higher = less potent
Protocol: as §1

TK-10 [7] = assay: GI50, drug alone; higher = less potent
Protocol: as §1

UO-31 [8] = assay: GI50, drug alone; higher = less potent
Protocol: as §1

769-P [9] = assay: minimum viability across doses, drug alone, relative to DMSO (fraction); higher = less growth inhibition
Protocol: as §1

786-O [10] = assay: as above
Protocol: as §1

A498 [11] = assay: as above
Protocol: as §1

ACHN [12] = assay: as above
Protocol: as §1

CAKI-1 [13] = assay: as above
Protocol: as §1

SN12C [14] = assay: as above
Protocol: as §1

TK-10 [15] = assay: as above
Protocol: as §1

UO-31 [16] = assay: as above
Protocol: as §1

769-P [17] = assay: AUC of dose-response viability curve, drug alone (arbitrary (AUC of normalised viability)); higher = less growth inhibition
Protocol: as §1

786-O [18] = assay: as above
Protocol: as §1

A498 [19] = assay: as above
Protocol: as §1

ACHN [20] = assay: as above
Protocol: as §1

CAKI-1 [21] = assay: as above
Protocol: as §1

SN12C [22] = assay: as above
Protocol: as §1

TK-10 [23] = assay: as above
Protocol: as §1

UO-31 [24] = assay: as above
Protocol: as §1

| Compound | GI50, drug alone (769-P [1]) | GI50, drug alone (786-O [2]) | GI50, drug alone (A498 [3]) | GI50, drug alone (ACHN [4]) | GI50, drug alone (CAKI-1 [5]) | GI50, drug alone (SN12C [6]) | GI50, drug alone (TK-10 [7]) | GI50, drug alone (UO-31 [8]) | minimum viability across doses (769-P [9]) | minimum viability across doses (786-O [10]) | minimum viability across doses (A498 [11]) | minimum viability across doses (ACHN [12]) | minimum viability across doses (CAKI-1 [13]) | minimum viability across doses (SN12C [14]) | minimum viability across doses (TK-10 [15]) | minimum viability across doses (UO-31 [16]) | AUC of dose-response viability curve (769-P [17]) | AUC of dose-response viability curve (786-O [18]) | AUC of dose-response viability curve (A498 [19]) | AUC of dose-response viability curve (ACHN [20]) | AUC of dose-response viability curve (CAKI-1 [21]) | AUC of dose-response viability curve (SN12C [22]) | AUC of dose-response viability curve (TK-10 [23]) | AUC of dose-response viability curve (UO-31 [24]) |
| --- | --- | --- | --- | --- | --- | --- | --- | --- | --- | --- | --- | --- | --- | --- | --- | --- | --- | --- | --- | --- | --- | --- | --- | --- |
| COC(=O)c1ccc2c(c1)NC(=O)/C2=C(\Nc1ccc(N(C)C(=O)CN2CCN(C)CC2)cc1)c1ccccc1 [BIBF1120 (Vargatef)] | > 10 µM | > 10 µM | > 10 µM | 2.07 µM | 2.13 µM | > 10 µM | > 10 µM | 7.36 µM | 0.917 | 0.782 | 0.892 | 0.255 | 0.251 | 0.393 | 0.61 | 0.439 | 3.42 | 3.94 | 3.91 | 2.77 | 2.81 | 2.58 | 3.09 | 4.65 |
| O=C(O)c1ccc(Nc2ncc3c(n2)-c2ccc(Cl)cc2C(c2c(F)cccc2F)=NC3)cc1 [MLN8054] | 5.56 µM | 0.523 µM | > 10 µM | 1.83 µM | 3.18 µM | 6.21 µM | > 10 µM | > 10 µM | 0.365 | 0.038 | 0.562 | 0.246 | 0.4 | 0.427 | 0.668 | 0.748 | 2.85 | 2.52 | 3.53 | 2.48 | 2.84 | 3.01 | 2.93 | 3.59 |
| O=C(NOCC1CC1)c1ccc(F)c(F)c1Nc1ccc(I)cc1Cl | 5.01 µM | 4.38 µM | > 10 µM | 3.51 µM | 4.19 µM | > 10 µM | 4.99 µM | > 10 µM | 0.233 | 0.41 | 0.593 | 0.263 | 0.23 | 0.467 | 0.362 | 0.779 | 2.96 | 2.98 | 3.44 | 2.78 | 3.04 | 2.86 | 2.68 | 4.14 |
| C#Cc1cccc(Nc2ncnc3cc(OCCOC)c(OCCO)cc23)c1.Cl [OSI-420 (Desmethyl Erlotinib)] | 3.59 µM | 0.101 µM | > 10 µM | 0.827 µM | 3.01 µM | > 10 µM | 2.42 µM | > 10 µM | 0.36 | 0.443 | 0.92 | 0.101 | 0.159 | 0.6 | 0.416 | 0.906 | 2.69 | 2.49 | 3.79 | 2.38 | 2.79 | 2.95 | 2.29 | 3.38 |
| FC(F)c1nc2ccccc2n1-c1nc(N2CCOCC2)nc(N2CCOCC2)n1 [ZSTK474] | 1.09 µM | 0.299 µM | 2.17 µM | 0.699 µM | 0.431 µM | 1.23 µM | 0.547 µM | 1.45 µM | 0.127 | 0.0739 | 0.0458 | 0.0879 | 0.109 | 0.172 | 0.158 | 0.0171 | 2.38 | 1.95 | 2.84 | 2.36 | 2.12 | 2.48 | 2.17 | 2.73 |
| CC(=O)Nc1ccc(NC(=S)NC(=O)c2ccc(C(C)(C)C)cc2)cc1 [Tenovin-1] | 0.818 µM | 0.17 µM | 0.978 µM | 9.84 µM | > 10 µM | > 10 µM | 5.19 µM | 0.264 µM | 0.0841 | 0.00113 | 0.0355 | 0.515 | 0.536 | 0.762 | 0.412 | 0.00581 | 2.48 | 1.52 | 2.77 | 2.75 | 2.96 | 3.15 | 2.63 | 2.6 |
| CN(C)CCOc1ccc(-c2nc(-c3ccncc3)c(-c3ccc4c(c3)CC/C4=N/O)[nH]2)cc1 | 8.71 µM | 7.91 µM | 8.04 µM | 8.61 µM | 9.32 µM | > 10 µM | > 10 µM | > 10 µM | 0.177 | 0.0071 | 0.0435 | 0.167 | 0.308 | 0.706 | 0.575 | 0.573 | 3.44 | 2.94 | 4.26 | 3.51 | 3.77 | 3.3 | 3.35 | 5.65 |
| O=C(NC1CCNCC1)c1n[nH]cc1NC(=O)c1c(Cl)cccc1Cl [AT7519] | 1.91 µM | 0.375 µM | 0.455 µM | 0.946 µM | 0.9 µM | 0.431 µM | 1.04 µM | 0.415 µM | 0.0237 | 0.00447 | 0.00986 | 0.00881 | 0.0613 | 0.0108 | 0.182 | 0.00638 | 2.78 | 2.23 | 2.45 | 2.35 | 2.23 | 2.14 | 2.32 | 3.04 |
| Cc1nc(Nc2ncc(C(=O)Nc3c(C)cccc3Cl)s2)cc(N2CCN(CCO)CC2)n1 | 0.149 µM | 0.179 µM | > 10 µM | 0.0785 µM | 0.0788 µM | 2.3 µM | 0.0257 µM | 0.135 µM | 0.0457 | 0.0837 | 0.631 | 0.0527 | 0.0431 | 0.377 | 0.0612 | 0.0768 | 1.7 | 1.9 | 3.35 | 1.52 | 1.45 | 2.35 | 1.11 | 1.93 |
| C=CC(=O)N1CCC[C@@H](n2nc(-c3ccc(Oc4ccccc4)cc3)c3c(N)ncnc32)C1 | 1.83 µM | > 10 µM | > 10 µM | 3.93 µM | 7.05 µM | > 10 µM | 1.43 µM | > 10 µM | 0.301 | 0.529 | 0.946 | 0.394 | 0.335 | 0.706 | 0.225 | 0.949 | 2.53 | 2.3 | 6.43 | 2.53 | 3.19 | 2.88 | 2.31 | 4.29 |
| CCCCOc1c(C(=O)c2c(F)cc(C)cc2F)cnc2[nH]ncc12 | > 10 µM | 0.0969 µM | > 10 µM | 0.267 µM | > 10 µM | > 10 µM | 2.45 µM | 0.984 µM | 0.562 | 0.0155 | 0.575 | 0.198 | 0.745 | 0.564 | 0.47 | 0.00742 | 2.95 | 1.46 | 3.32 | 1.93 | 3.12 | 2.98 | 2.35 | 3.45 |
| CN(C)c1ccc(-c2nc3c(N4CCN(CC(=O)Nc5nccs5)CC4)c(Cl)cnc3[nH]2)cc1 | 5.51 µM | 2.76 µM | > 10 µM | 1.86 µM | 1.26 µM | 5.4 µM | > 10 µM | 2.01 µM | 0.39 | 0.259 | 0.622 | 0.18 | 0.115 | 0.434 | 0.574 | 0.0202 | 2.85 | 2.24 | 4.21 | 2.58 | 2.57 | 2.76 | 2.91 | 3.93 |
| COc1ccc2c(c1OC)N=C(NC(=O)c1cccnc1)N1CCN=C21 [PIK-90] | > 10 µM | > 10 µM | > 10 µM | > 10 µM | 3.06 µM | 3.41 µM | > 10 µM | > 10 µM | 0.693 | 0.53 | 1.02 | 0.655 | 0.358 | 0.175 | 0.616 | 0.822 | 3.07 | 2.46 | 3.98 | 3.1 | 2.42 | 2.7 | 2.75 | 3.42 |
| O=C1NC(=O)C(=Cc2ccc(-c3ccc(F)cc3)o2)S1 (stereo in doubt) | > 10 µM | > 10 µM | > 10 µM | > 10 µM | > 10 µM | > 10 µM | > 10 µM | 7.95 µM | 0.859 | 0.566 | 0.852 | 0.871 | 0.882 | 0.82 | 0.81 | 0.311 | 3.33 | 2.4 | 3.71 | 3.47 | 3.34 | 3.23 | 3.07 | 3.29 |
| CCOc1ccn(-c2ccc(F)cc2)c(=O)c1C(=O)Nc1ccc(Oc2ccnc(N)c2Cl)c(F)c1 | > 10 µM | > 10 µM | > 10 µM | 8.82 µM | > 10 µM | > 10 µM | > 10 µM | > 10 µM | 0.817 | 0.503 | 0.87 | 0.443 | 0.47 | 0.75 | 0.665 | 0.722 | 3.17 | 2.3 | 3.52 | 3.06 | 2.99 | 3.14 | 2.99 | 4.18 |
| Cc1nc(N)sc1-c1ccnc(Nc2ccc(N3CCOCC3)cc2)n1 [CYC116] | 2.99 µM | 0.727 µM | 7.87 µM | 0.975 µM | 0.693 µM | 3.21 µM | 1.89 µM | 8.17 µM | 0.137 | 0.00272 | 0.287 | 0.107 | 0.027 | 0.207 | 0.152 | 0.00864 | 2.86 | 1.88 | 3.68 | 2.45 | 2.23 | 2.72 | 2.31 | 3.6 |
| CNC(=O)c1ccc(-c2cnc3ncc(Cc4ccc5ncccc5c4)n3n2)cc1F | > 10 µM | > 10 µM | > 10 µM | > 10 µM | > 10 µM | > 10 µM | > 10 µM | > 10 µM | 0.916 | 0.652 | 0.984 | 0.842 | 0.802 | 0.913 | 0.843 | 1.21 | 3.5 | 2.88 | 4.54 | 3.21 | 3.25 | 3.41 | 3.14 | 5.21 |
